Data from the supplement of paper PMC10307832.

Assays:
Experiment in all cases: relative viability (nuclei count vs DMSO), 5 days (fraction); higher = more cells survive
Dactolisib + Pictilisib = compound: Cn1c(=O)n(-c2ccc(C(C)(C)C#N)cc2)c2c3cc(-c4cnc5ccccc5c4)ccc3ncc21 [Dactolisib] + CS(=O)(=O)N1CCN(Cc2cc3nc(-c4cccc5[nH]ncc45)nc(N4CCOCC4)c3s2)CC1 [Pictilisib] (partner 1 µM)
Summary of the method: (§1)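 One day after seeding in 1536-well plates, lung cancer cell lines were dosed by pin tool. Dosing was either single-drug or a fixed anchor-drug dose plus five library-drug doses (not always all listed) in √10 steps. After 5 days, nuclei were stained in one fix-and-stain step and counted on 4× images, and relative viability is the nuclei count of treated wells over that of vehicle wells, given as the median of duplicate plates.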

AZ505 + Foretinib = compound: C1CCC(CC1)N(CCNCCC2=C3C(=C(C=C2)O)NC(=O)CO3)C(=O)CCNCCC4=CC(=C(C=C4)Cl)Cl [AZ505] + COc1cc2c(Oc3ccc(NC(=O)C4(C(=O)Nc5ccc(F)cc5)CC4)cc3F)ccnc2cc1OCCCN1CCOCC1 [Foretinib] (partner 0.25 µM)
Summary of the method: as §1

AZ505 + Crizotinib = compound: C1CCC(CC1)N(CCNCCC2=C3C(=C(C=C2)O)NC(=O)CO3)C(=O)CCNCCC4=CC(=C(C=C4)Cl)Cl [AZ505] + C[C@@H](Oc1cc(-c2cnn(C3CCNCC3)c2)cnc1N)c1c(Cl)ccc(F)c1Cl [Crizotinib] (partner 1 µM)
Summary of the method: as §1

AZ505 + Linsitinib = compound: C1CCC(CC1)N(CCNCCC2=C3C(=C(C=C2)O)NC(=O)CO3)C(=O)CCNCCC4=CC(=C(C=C4)Cl)Cl [AZ505] + C[C@]1(O)C[C@@H](c2nc(-c3ccc4ccc(-c5ccccc5)nc4c3)c3c(N)nccn32)C1 [Linsitinib] (partner 1 µM)
Summary of the method: as §1

Row | Cell Line | relative viability (Dactolisib + Pictilisib; first compound 0.002 µM) | relative viability (Dactolisib + Pictilisib; first compound 0.006325 µM) | relative viability (Dactolisib + Pictilisib; first compound 0.02 µM) | relative viability (Dactolisib + Pictilisib; first compound 0.06325 µM) | relative viability (Dactolisib + Pictilisib; first compound 0.2 µM) | relative viability (AZ505 + Foretinib; first compound 0.08 µM) | relative viability (AZ505 + Foretinib; first compound 0.253 µM) | relative viability (AZ505 + Foretinib; first compound 0.8 µM) | relative viability (AZ505 + Foretinib; first compound 2.53 µM) | relative viability (AZ505 + Foretinib; first compound 8 µM) | relative viability (AZ505 + Crizotinib; first compound 0.08 µM) | relative viability (AZ505 + Crizotinib; first compound 0.253 µM) | relative viability (AZ505 + Crizotinib; first compound 0.8 µM) | relative viability (AZ505 + Crizotinib; first compound 2.53 µM) | relative viability (AZ505 + Crizotinib; first compound 8 µM) | relative viability (AZ505 + Linsitinib; first compound 0.08 µM) | relative viability (AZ505 + Linsitinib; first compound 0.253 µM) | relative viability (AZ505 + Linsitinib; first compound 0.8 µM) | relative viability (AZ505 + Linsitinib; first compound 2.53 µM) | relative viability (AZ505 + Linsitinib; first compound 8 µM)
1 | EBC-1 | 0.332 | 0.279 | 0.279 | 0.204 | 0.171 | 0.0937 | 0.0894 | 0.0949 | 0.0895 | 0.121 | 0.21 | 0.198 | 0.178 | 0.203 | 0.184 | 0.87 | 0.833 | 1.01 | 0.841 | 0.896
2 | NCI-H2347 | 0.49 | 0.599 | 0.482 | 0.389 | 0.237 |  | 0.743 | 0.719 |  | 1.04 | 0.518 | 0.55 | 0.433 | 0.443 | 0.559 | 0.6 | 0.603 | 0.668 | 0.543 | 0.714
3 | NCI-H1993 | 0.99 | 0.85 | 0.804 | 0.705 | 0.834 | 0.764 | 0.702 | 0.731 | 0.846 | 0.963 | 0.928 | 0.85 | 0.766 | 1.03 | 0.798 | 0.677 | 0.654 | 0.728 | 0.91 | 0.7
4 | NCI-H322M | 0.504 | 0.564 | 0.34 | 0.448 | 0.461 | 0.889 | 1 | 0.952 | 0.946 | 1.1 | 0.93 | 0.786 | 0.878 | 0.828 | 0.931 | 0.895 | 0.863 | 0.983 | 0.981 | 0.95
5 | NCI-H1792 | 0.323 | 0.246 | 0.218 | 0.0901 | 0.0962 |  |  |  |  |  | 0.734 | 1.08 | 0.935 | 0.928 | 1.11 | 0.552 | 0.652 | 0.424 | 0.509 | 0.577
6 | ChaGo-K-1 | 0.723 | 0.744 | 0.491 | 0.923 | 0.552 | 0.936 | 1.11 | 0.928 | 0.951 | 0.91 | 1.17 | 1.04 | 1.12 | 0.958 | 1.15 |  |  |  |  | 
7 | HCC-44 | 0.672 | 0.536 | 0.709 | 0.536 | 0.368 |  |  |  |  |  | 0.748 | 0.772 | 0.804 | 0.773 | 0.791 | 0.671 | 0.691 | 0.619 | 0.654 | 0.663
8 | NCI-H1793 | 0.311 | 0.315 | 0.175 | 0.211 | 0.203 | 0.627 | 0.735 | 0.758 |  | 0.572 |  |  |  |  |  | 0.766 | 0.769 | 0.932 | 1.03 | 1.06
9 | NCI-H1395 | 0.64 | 0.611 | 0.569 | 0.525 | 0.446 | 0.978 | 0.943 | 0.899 | 0.999 | 1.07 |  |  |  |  |  | 0.972 | 1.01 | 0.949 | 0.971 | 1
10 | SW 900 |  |  |  |  |  | 0.85 | 0.972 | 0.968 | 0.927 | 0.616 |  |  |  |  |  |  |  |  |  | 
